Reference: PMC10618743 (Cancer Discovery, 2023)

Key:
[1] = Tolerability measures in CDX studies: body weight and insulin 1 hour after dose; conditions: for Δ Insulin: Alpelisib 50 mg/kg QD, one-hour post dose
[2] = cited from earlier work
[3] = test system: PI3Kα-mutant, ER+HER2- metastatic breast cancer; conditions: alpelisib in combination with fulvestrant, median follow-up 20 months; cited from earlier work
[4] = alpelisib with ribociclib and fulvestrant, in the clinic; cited from earlier work
T47D cells = test: Cell viability CellTiter-Glo; type: cell-based; conditions: Homo sapiens, H1047R, 72 hours, read-out: CTGlo GMean GI50 (95% CI)
Description: (§1) Cell viability was measured using CellTiter-Glo (Promega, #G9243). Indicated cell lines were seeded according to Supplementary Table S3 in 50 μL of media in 384-well plates, with 72 hours of treatment at 37°C with 5% CO2.

NCIH1048 cells = test: Cell viability CellTiter-Glo; type: cell-based; conditions: Homo sapiens, NCI-H1048; NCIH1048, H1047R + K111R; 72 hours; read-out: CTGlo GMean GI50 (95% CI)
Description: as §1

HCC1954 cells = test: Cell viability CellTiter-Glo; type: cell-based; conditions: Homo sapiens; HCC1954, H1047R; 72 hours; read-out: CTGlo GMean GI50 (95% CI)
Description: as §1

DETROIT562 cells = test: Cell viability CellTiter-Glo; type: cell-based; conditions: Homo sapiens, Detroit 562; DETROIT562, H1047R; 72 hours; read-out: CTGlo GMean GI50 (95% CI)
Description: as §1

EFM19 cells = test: Cell viability CellTiter-Glo; type: cell-based; conditions: Homo sapiens, EFM-19; EFM19, H1047L; 72 hours; read-out: CTGlo GMean GI50 (95% CI)
Description: as §1

OAW42 cells = test: Cell viability CellTiter-Glo; type: cell-based; conditions: Homo sapiens, OAW-42; OAW42, H1047L; 72 hours; read-out: CTGlo GMean GI50 (95% CI)
Description: as §1

SKBR3 cells = test: Cell viability CellTiter-Glo; type: cell-based; conditions: Homo sapiens, SK-BR-3; SKBR3, WT PI3Kα; 72 hours; read-out: CTGlo GMean GI50 (95% CI)
Description: as §1

CAL33 cells = test: Cell viability CellTiter-Glo; type: cell-based; conditions: Homo sapiens, CAL-33; CAL33, H1047R; 72 hours; read-out: CTGlo GMean GI50 (95% CI)
Description: as §1

BT20 cells = test: Cell viability CellTiter-Glo; type: cell-based; conditions: Homo sapiens, BT-20; BT20, H1047R + P539R; 72 hours; read-out: CTGlo GMean GI50 (95% CI)
Description: as §1

What does the source list for `Cc1nc(NC(=O)N2CCC[C@H]2C(N)=O)sc1-c1ccnc(C(C)(C)C(F)(F)F)c1` [alpelisib]?
Δ Insulin ([1]; Cal33 model): +1.07 ng/mL; Δ Insulin ([1]; Detroit 562 model): +2.33 ng/mL; Δ Insulin ([1]; GP2D model): +1.59 ng/mL; Δ Insulin ([1]; HCC1954 model): +2.38 ng/mL; Δ Insulin ([1]; NCI-H1048 model): +1.21 ng/mL; effects on body weight across studies ([1]; STX-478 100 mg/kg q.d., alpelisib 50 mg/kg q.d.): No treatment-specific effects on body weight; Δ Insulin ([1]; T-47D model): +0.79 ng/mL; exposure of the maximum approved human dose (AUC) [2]: ~33,000 ng*h/mL; progression-free survival time [3]: 11.0 months; tolerability of triple combination [4]: not tolerated in the clinic; GI50 (T47D cells): 334 nM; GI50 (NCIH1048 cells): 67 nM; GI50 (HCC1954 cells): 384 nM; GI50 (DETROIT562 cells): 436 nM; GI50 (EFM19 cells): 127 nM; GI50 (OAW42 cells): 601 nM; GI50 (SKBR3 cells): 335 nM; GI50 (CAL33 cells): 340 nM; GI50 (BT20 cells): 516 nM
